Article PMC6315173, “Characterization of the Apelin/Elabela Receptors (APLNR) in Chickens, Turtles, and Zebrafish: Identification of a Novel Apelin-Specific Receptor in Teleosts” (Frontiers in Endocrinology, 2018)
Residues, ends and D or L forms follow the SMILES beside them. No end group written: not given here.

Columns and labels:
[1] = biological target: T1, zebrafish APLNR2a (zfAPLNR2a) (Danio rerio, UniProt Q7SZP9); assay: pGL3-CRE-luciferase reporter assay, HEK293 cells expressing zebrafish APLNR2a; type: cell-based; conditions: SEM
T1 construct: the open reading frame (ORF) of each APLNR was amplified from the animal; expressed in transfected cells; host or cells: HEK293
T1 sequence (Q7SZP9 1-362): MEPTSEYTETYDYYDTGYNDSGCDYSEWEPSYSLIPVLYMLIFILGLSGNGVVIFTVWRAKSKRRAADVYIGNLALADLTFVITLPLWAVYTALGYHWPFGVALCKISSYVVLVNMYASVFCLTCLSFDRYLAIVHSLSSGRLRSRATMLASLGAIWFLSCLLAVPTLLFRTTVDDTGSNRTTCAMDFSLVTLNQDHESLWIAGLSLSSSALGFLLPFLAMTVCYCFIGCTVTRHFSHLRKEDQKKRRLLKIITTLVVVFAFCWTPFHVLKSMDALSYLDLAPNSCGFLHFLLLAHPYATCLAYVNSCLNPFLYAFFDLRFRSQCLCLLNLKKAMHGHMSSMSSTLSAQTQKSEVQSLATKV
Experimental: (§1) In brief, HEK293 cells were cultured on a six-well plate and grown for 24 h before transfection. The cells were then transfected with a mixture containing 700 ng pGL3-CRE-Luciferase reporter construct (or pGL4-SRE-Luciferase reporter construct), 200 ng of receptor expression plasmid [or empty pcDNA3.1(+) vector as a negative control], and 2 μl jetPRIME (Polyplus Transfection, Illkirch, France) in 200 μl buffer. Twenty-four hour later, HEK293 cells were sub-cultured into a 96-well plate at 37°C for an additional 24 h before treatment. After removal of medium from the 96-well plate, the cells were treated with 100 μl peptide-containing medium (or peptide-free medium) for 6 h in the presence or absence of forskolin (5 μM). Finally, HEK293 cells were lysed with 1 × passive lysis buffer for luciferase assay (Promega, Madison, WI, USA) and the luciferase activity of the cell lysate was measured by a Multimode microplate Reader (TriStar LB 941, EG&G Berthold, Germany) according to the manufacturer's instruction.
(§2) The luciferase activity in each treatment group was expressed as the relative fold changes as compared with their respective control groups. The data were analyzed by non-linear regression followed by one-way ANOVA using GraphPad Prism 5 (GraphPad, San Diego, CA, USA). To validate the results, all experiments were repeated at least twice.

[2] = biological target: T2, zebrafish APLNR2b (zfAPLNR2b) (Danio rerio, UniProt A0T2N3); assay: pGL3-CRE-luciferase reporter assay, HEK293 cells expressing zebrafish APLNR2b; type: cell-based; conditions: SEM
T2 construct: the open reading frame (ORF) of each APLNR was amplified from the animal; expressed in transfected cells; host or cells: HEK293
T2 sequence (A0T2N3 1-359): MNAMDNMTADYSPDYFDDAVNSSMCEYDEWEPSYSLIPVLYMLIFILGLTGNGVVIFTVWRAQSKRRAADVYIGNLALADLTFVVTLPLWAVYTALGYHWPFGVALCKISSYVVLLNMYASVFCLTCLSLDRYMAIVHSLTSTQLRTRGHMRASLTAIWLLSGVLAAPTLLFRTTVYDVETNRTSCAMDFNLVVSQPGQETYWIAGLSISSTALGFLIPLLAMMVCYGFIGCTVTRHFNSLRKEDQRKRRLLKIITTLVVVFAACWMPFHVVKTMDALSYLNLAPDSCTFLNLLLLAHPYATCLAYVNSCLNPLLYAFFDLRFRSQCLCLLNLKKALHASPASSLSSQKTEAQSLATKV
Experimental: as §1, §2

[3] = tested on: zebrafish APLNR3a (zfAPLNR3a); assay: pGL3-CRE-luciferase reporter assay, HEK293 cells expressing zebrafish APLNR3a; type: cell-based, zebrafish (Danio rerio); conditions: HEK293 cells transiently expressing zfAPLNR3a, inhibition of forskolin (5 μM)-stimulated pGL3-CRE-luciferase activity, 6 h, mean ± S.E. of 3 independent experiments, N = EC50 cannot be evaluated
Experimental: as §1, §2

[4] = tested on: tilapia APLNR3b (tiAPLNR3b); assay: pGL3-CRE-luciferase reporter assay, HEK293 cells expressing tilapia APLNR3b; type: cell-based, Nile tilapia (Oreochromis niloticus); conditions: HEK293 cells transiently expressing tiAPLNR3b, inhibition of forskolin (5 μM)-stimulated pGL3-CRE-luciferase activity, 6 h, mean ± S.E. of 3 independent experiments, N = EC50 cannot be evaluated
Experimental: as §1, §2

[5] = biological target: T3, zebrafish APLNR2a (Danio rerio, UniProt Q7SZP9); assay: Western blot of ERK1/2 phosphorylation, HEK293 cells expressing zebrafish APLNR2a; type: cell-based; conditions: 100 nM, duplicates, time-dependent (5, 10, 20 min)
T3 construct: the open reading frame (ORF) of each APLNR was amplified from the animal; expressed in transfected cells; host or cells: HEK293
T3 sequence (Q7SZP9 1-362): T1 sequence (Q7SZP9 1-362)
Experimental: HEK293 cells cultured in a 60-mm culture dish (Nunc, Rochester, NY, USA) with 70% confluence were transfected by 1 μg of receptor expression plasmid using jetPRIME reagent according to manufacturers' instruction (Polyplus Transfection, Illkirch, France). […] These cells were washed with cold PBS and lysed by RIPA Lysis Buffer (Roche, Basel, Switzerland) on ice. Western blot was used to examine ERK1/2 phosphorylation and β-actin levels in cell lysates.

[6] = tested on: zebrafish APLNR3a; assay: Western blot of ERK1/2 phosphorylation, HEK293 cells expressing zebrafish APLNR3a; type: cell-based, zebrafish (Danio rerio)
Experimental: HEK293 cells cultured in a 60-mm culture dish (Nunc, Rochester, NY, USA) with 70% confluence were transfected by 1 μg of receptor expression plasmid using jetPRIME reagent according to manufacturers' instruction (Polyplus Transfection, Illkirch, France). After the 24-h transfection, HEK293 cells were sub-cultured into a 24-well plate, serum-deprived for 12 h and then treated by peptides for 10 min. These cells were washed with cold PBS and lysed by RIPA Lysis Buffer (Roche, Basel, Switzerland) on ice. Western blot was used to examine ERK1/2 phosphorylation and β-actin levels in cell lysates.

Compound | EC50 [1] [nM] | EC50 [2] [nM] | EC50 [3] [nM] | EC50 [4] [nM] | phosphorylation of ERK1/2, Western blot [5] | ERK1/2 phosphorylation, Western blot [6] | EC50 ([3]; SEM) [nM] | EC50 ([4]; SEM) [nM]
CC(C)C[C@H](NC(=O)[C@H](CC(N)=O)NC(=O)[C@H](CC(C)C)NC(=O)[C@H](Cc1ccccc1)NC(=O)[C@H](CC(=O)O)NC(=O)[C@H](Cc1c[nH]cn1)NC(=O)[C@H](CCCCN)NC(=O)[C@@H](NC(=O)CNC(=O)[C@H](Cc1c[nH]cn1)NC(=O)[C@H](CCCCN)NC(=O)[C@@H](N)CC(=O)O)[C@@H](C)O)C(=O)N[C@@H](CCCNC(=N)N)C(=O)N[C@@H](CCCNC(=N)N)C(=O)N[C@@H](CCCCN)C(=O)N[C@@H](Cc1ccc(O)cc1)C(=O)N[C@@H](CCCNC(=N)N)C(=O)N[C@@H](CCCNC(=N)N)C(=O)N[C@@H](Cc1c[nH]cn1)C(=O)N[C@@H](CC(N)=O)C(=O)N[C@@H](CS)C(=O)N1CCC[C@H]1C(=O)N[C@@H](CCCCN)C(=O)N[C@@H](CCCCN)C(=O)N[C@@H](CCCNC(=N)N)C(=O)N[C@@H](CS)C(=O)N[C@@H](CC(C)C)C(=O)N1CCC[C@H]1C(=O)N[C@@H](CC(C)C)C(=O)N[C@@H](Cc1c[nH]cn1)C(=O)N[C@@H](CO)C(=O)N[C@@H](CCCNC(=N)N)C(=O)N[C@H](C(=O)N1CCC[C@H]1C(=O)N[C@@H](Cc1ccccc1)C(=O)N1CCC[C@H]1C(=O)O)C(C)C [zfELA-36] (H-DKHGTKHDFLNLRRKYRRHNCPKKRCLPLHSRVPFP-OH; N-terminus and C-terminus assumed) | 1.61 ± 0.8 | 1.29 ± 0.9 | > 100 | > 100 | can enhance phosphorylation of ERK1/2 | not ELA-36 | – | –
TPLRQNPARAGRSQRPAGWRRRRPRPRLSHKGPMPF [zfApelin-36] | 0.89 ± 0.44 | 0.51 ± 0.31 | – | – | can enhance phosphorylation of ERK1/2 | can induce ERK1/2 phosphorylation | 0.45 ± 0.12 | 0.77 ± 0.24
